Data on one compound can be found in patent US11708357B2, “Crystal form of pyrrolidinyl urea derivative and application thereof” (ZHANGZHOU PIEN TZE HUANG PHARMACEUTICAL CO., LTD., priority 2020, dated 2023).

One series has as its target T1, CYP1A2 (Homo sapiens, UniProt P05177).
T1 construct: from tissue; host or cells: human liver microsomes
T1 sequence (P05177 1-516): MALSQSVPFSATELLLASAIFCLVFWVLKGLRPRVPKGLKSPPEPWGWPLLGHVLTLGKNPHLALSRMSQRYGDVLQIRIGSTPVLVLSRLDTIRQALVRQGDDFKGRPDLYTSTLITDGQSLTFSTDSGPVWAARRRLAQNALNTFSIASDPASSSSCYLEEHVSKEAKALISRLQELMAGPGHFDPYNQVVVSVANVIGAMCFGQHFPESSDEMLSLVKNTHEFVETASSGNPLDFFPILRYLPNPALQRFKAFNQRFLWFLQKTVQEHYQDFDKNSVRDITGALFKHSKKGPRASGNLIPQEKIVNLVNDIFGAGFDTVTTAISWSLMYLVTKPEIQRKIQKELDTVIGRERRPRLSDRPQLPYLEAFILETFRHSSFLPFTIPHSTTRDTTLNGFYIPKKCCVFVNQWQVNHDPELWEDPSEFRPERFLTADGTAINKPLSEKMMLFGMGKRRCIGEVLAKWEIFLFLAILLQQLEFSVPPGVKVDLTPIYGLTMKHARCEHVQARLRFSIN
The series can be described thus: Cytochrome P450 isozyme inhibitory activity test, CYP1A2. The class given is in vitro ADME. Particulars: liver microsomes; human liver microsome. As for the experimental part:
(§1) The inhibitory activities of the test compound on different subtypes of human cytochrome P450 isozymes were determined. The test compound, standard inhibitor (100× final concentration), and a mixed substrate working solution were prepared; the microsome frozen in −80° C. refrigerator was thawed. […]

In a further series the target is T2, CYP2C19 (Homo sapiens, UniProt P33261).
T2 construct: from tissue; host or cells: human liver microsomes
T2 sequence (P33261 whole entry): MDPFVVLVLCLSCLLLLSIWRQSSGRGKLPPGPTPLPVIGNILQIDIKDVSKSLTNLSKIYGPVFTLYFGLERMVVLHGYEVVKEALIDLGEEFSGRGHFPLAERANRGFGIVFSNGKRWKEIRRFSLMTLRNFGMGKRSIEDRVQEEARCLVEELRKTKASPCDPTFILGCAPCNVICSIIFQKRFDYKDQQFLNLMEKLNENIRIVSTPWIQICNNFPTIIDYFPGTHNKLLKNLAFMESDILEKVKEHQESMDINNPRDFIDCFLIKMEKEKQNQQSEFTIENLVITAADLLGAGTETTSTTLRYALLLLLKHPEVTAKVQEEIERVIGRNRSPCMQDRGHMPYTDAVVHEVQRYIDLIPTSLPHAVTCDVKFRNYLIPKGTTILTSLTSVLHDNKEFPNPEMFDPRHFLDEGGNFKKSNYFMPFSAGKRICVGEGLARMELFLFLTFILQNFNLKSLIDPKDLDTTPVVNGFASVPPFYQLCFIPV
In words: Cytochrome P450 isozyme inhibitory activity test, CYP2C19. It counts as in vitro ADME. The settings on record: liver microsomes; human liver microsome. On the procedure:
as §1
Background: Liver microsomes are a subcellular fraction often used to study metabolism.

The nature of series [1]: In vivo pharmacokinetic study in mice after single administration. Also on record: species or system CD-1 mice. The settings on record: male, CD-1, mouse, plasma. On the procedure:
Male CD-1 mice were used as test animals, the concentration of the compound in blood was determined after single administration to evaluate the pharmacokinetic behavior.
CD-1 mice (male, 20-40 g, 6-9 weeks, Shanghai Sippr-Bk Laboratory Animal Co., Ltd.)
The pharmacokinetic characteristics of the test compound in rodents after intravenous injection and oral administration were tested by standard protocols, in the experiment, the test compound was prepared into a clear solution or homogeneous suspension, and administered to the mice by single intravenous injection and oral administration. In the intravenous injection group, the menstruum was a certain proportion of ethanol, Cremophor EL and physiological saline solution, the mixture was vortexed to prepare 1 mg/mL clear solution, then filtered with microporous membrane for later use; in the oral administration group, the menstruum was a certain proportion of methyl cellulose solution or certain proportion of methyl cellulose and Tween 80 aqueous solution, the test compound was mixed with the menstruum, and the mixture was vortexed to prepare 10 mg/mL clear or homogeneous suspension for later use. After 2 mg/kg intravenous administration or 100 mg/kg oral administration to the mice, a certain amount of whole blood samples were collected, centrifuged at 3200 g for 10 minutes, the supernatant was separated to obtain the plasma samples, and the samples were diluted multiple times with blank plasma according to actual needs. The plasma sample was added to acetonitrile solution containing the internal standard with a volume 20 times that of the plasma sample to precipitate proteins, and then centrifuged; the supernatant was separated, and water with a volume twice that of the supernatant was added to the supernatant, which was then centrifuged again; the supernatant was collected for analysis; LC-MS/MS analysis method was used to quantitatively analyze the blood drug concentration, and Phoenix WinNonlin software (Pharsight, USA) was used to calculate the pharmacokinetic parameters, such as peak concentration, time to peak concentration, clearance rate, half-life, area under the concentration-time curve, bioavailability, etc.
Among them, C0 is the initial concentration, T1/2 is the elimination half-life, Vdss is the steady-state apparent volume of distribution, Cl is the total clearance rate, AUC0-inf is the area under the plasma drug concentration-time curve from time 0 to infinity, Cmax is the peak concentration, Tmax is the time to peak concentration.

Where [2] appears, read: 2 mg/kg, 2 mpk intravenous injection.
Setting [3] is: 100 mg/kg, 100 mpk oral administration.

On to `COCCN1C[C@@H](n2ccc(F)c2)[C@H](NC(=O)Nc2c(C)c(-c3cnc(C4(F)COC4)nc3)nn2-c2ccccc2)C1` [Compound of formula (I)], for which, at CYP1A2, the IC50 at 10 min was greater than 50 µM. At CYP2C19, this compound displayed an IC50 at 10 min greater than 50 µM. In series [1] (setting [2]), this compound had an area under the curve AUC(0-inf) of 1.44 µM·h, a C0 of 2720 nM, a clearance of 41.7 mL/min/kg and a half-life of 34.2 min. Further, in series [1] (2 mg/kg, 2 mpk intravenous injection, read-out: Vdss), the Vd is 1.54 L/kg. In series [1] (setting [3]), the area under the curve AUC(0-inf) is 37.6 µM·h, the peak level (Cmax) was 25.6 µM, the time of peak concentration (Tmax) was 22.8 min and the bioavailability worked out at 52.2%. In series [1] (setting [3]), this compound gave a half-life of 55.2 min.

As a reminder, the IC50 is the concentration needed to halve the response being measured. What is called AUC(0-inf) is total exposure, with the tail of the curve extrapolated. The low end stands for low exposure, the high end for high exposure. What is called clearance is a measure of how efficiently the substance is removed, as volume per time. Low values mean a low capacity for elimination, high ones a high capacity for elimination. As usually defined, the half-life is the time in which the quantity being followed falls by half. The low end stands for rapid decline, the high end for slow decline. As a reminder, the Cmax is the peak of the concentration-time curve. What is called Tmax is the time from dosing to the highest level. As a reminder, the bioavailability is the share of a dose that reaches the circulation, judged against a reference dose that is usually intravenous. Read a low bioavailability as little systemic uptake.
